Reference: article PMC10364322, “Evaluation of chronic drug-induced electrophysiological and cytotoxic effects using human-induced pluripotent stem cell-derived cardiomyocytes (hiPSC-CMs)” (Frontiers in Pharmacology, 2023)
Like-named read-outs stand apart in the source and are kept apart here.

Tested on: hiPSC-CMs (iCell-Cardiomyocytes^2)
In short: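 Spontaneous field potentials and impedance recorded by MEA at 37°C, 5% CO2 in hiPSC-CM monolayers (50 K/well, fibronectin-coated), 5-min baseline before compound; final DMSO 0.1%. Values are percent change from baseline, mean ± SD, compared with DMSO by Wilcoxon-Mann Whitney, interpreted against DMSO tolerance intervals.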

With COc1nc(N)nc2c1ncn2[C@@H]1O[C@H](COP(=O)(N[C@@H](C)C(=O)OCC(C)(C)C)Oc2cccc3ccccc23)[C@@H](O)[C@@]1(C)O (stereo partly shown) [BMS-986094] the “BR (beating rate), % change from baseline” value (“BR (beating rate), % change” for short) (0.3 µM, 2h) was 5±3%, the “Beating below threshold, number of observations/total well numbers” value (0.3 µM, 2h) was 0/5 and the “Cessation of beating, number of observations/total well numbers” value (0.3 µM, 2h) was 0/5. For the same compound, the “EAD, number of observations/total well numbers” value (0.3 µM, 2h) was 0/5, the “FPD (field-potential duration), % change from baseline” value (0.3 µM, 2h) was 0.5±1% and the “FPDc (field-potential duration corrected by beat-rate), % change from baseline” value (“FPDc … % change from baseline” for short) (0.3 µM, 2h) was 2.1±1.1%. The “Flat T-wave-like, number of observations/total well numbers” value (0.3 µM, 2h) was 0/5, the “BR (beating rate), % change” value (0.3 µM, 24h) was 8±3% and the “Beating below threshold, number of observations/total well numbers” value (0.3 µM, 24h) was 0/5. The “Cessation of beating, number of observations/total well numbers” value (0.3 µM, 24h) was 0/5, the “EAD, number of observations/total well numbers” value (0.3 µM, 24h) was 0/5 and the “FPD (field-potential duration), % change from baseline” value (0.3 µM, 24h) was -5.3±4.1%. For the same compound, the “FPDc … % change from baseline” value (0.3 µM, 24h) was -2.7±3.8%, the “Flat T-wave-like, number of observations/total well numbers” value (0.3 µM, 24h) was 0/5 and the “BR (beating rate), % change” value (0.3 µM, 48h) was 14±5%. For the same compound, the “Beating below threshold, number of observations/total well numbers” value (0.3 µM, 48h) was 0/5, the “Cessation of beating, number of observations/total well numbers” value (0.3 µM, 48h) was 0/5 and the “EAD, number of observations/total well numbers” value (0.3 µM, 48h) was 0/5. For the same compound, the “FPD (field-potential duration), % change from baseline” value (0.3 µM, 48h) was -12.4±4.7%, the “FPDc … % change from baseline” value (0.3 µM, 48h) was -8.4±4.1% and the “Flat T-wave-like, number of observations/total well numbers” value (0.3 µM, 48h) was 0/5. The “BR (beating rate), % change” value (0.3 µM, 72h) was 22±3 %, the “Beating below threshold, number of observations/total well numbers” value (0.3 µM, 72h) was 0/5 and the “Cessation of beating, number of observations/total well numbers” value (0.3 µM, 72h) was 0/5. For the same compound, the “EAD, number of observations/total well numbers” value (0.3 µM, 72h) was 0/5, the “FPD (field-potential duration), % change from baseline” value (0.3 µM, 72h) was -17.3±3.6 % and the “FPDc … % change from baseline” value (0.3 µM, 72h) was -11.6±3.5 %. For the same compound, the “Flat T-wave-like, number of observations/total well numbers” value (0.3 µM, 72h) was 0/5, the “BR (beating rate), % change” value (0.3 µM, 96h) was 30±11 % and the “Beating below threshold, number of observations/total well numbers” value (0.3 µM, 96h) was 0/5. For the same compound, the “Cessation of beating, number of observations/total well numbers” value (0.3 µM, 96h) was 0/5, the “EAD, number of observations/total well numbers” value (0.3 µM, 96h) was 0/5 and the “FPD (field-potential duration), % change from baseline” value (0.3 µM, 96h) was -20.4±2.9 %. For the same compound, the “FPDc … % change from baseline” value (0.3 µM, 96h) was -14.3±1.9 %, the “Flat T-wave-like, number of observations/total well numbers” value (0.3 µM, 96h) was 1/5 and the “BR (beating rate), % change” value (1 µM, 2h) was 6±2%. For the same compound, the “Beating below threshold, number of observations/total well numbers” value (1 µM, 2h) was 0/5, the “Cessation of beating, number of observations/total well numbers” value (1 µM, 2h) was 0/5 and the “EAD, number of observations/total well numbers” value (1 µM, 2h) was 0/5. The “FPD (field-potential duration), % change from baseline” value (1 µM, 2h) was -3.6±2.3%, the “FPDc … % change from baseline” value (1 µM, 2h) was -1.8±2.1% and the “Flat T-wave-like, number of observations/total well numbers” value (1 µM, 2h) was 1/5. For the same compound, the “BR (beating rate), % change” value (1 µM, 24h) was 17±5%, the “Beating below threshold, number of observations/total well numbers” value (1 µM, 24h) was 0/5 and the “Cessation of beating, number of observations/total well numbers” value (1 µM, 24h) was 0/5. For the same compound, the “EAD, number of observations/total well numbers” value (1 µM, 24h) was 0/5, the “FPD (field-potential duration), % change from baseline” value (1 µM, 24h) was -10.7±2.3 % and the “FPDc … % change from baseline” value (1 µM, 24h) was -6±2.7%. For the same compound, the “Flat T-wave-like, number of observations/total well numbers” value (1 µM, 24h) was 0/5, the “BR (beating rate), % change” value (1 µM, 48h) was 12±3% and the “Beating below threshold, number of observations/total well numbers” value (1 µM, 48h) was 0/5. The “Cessation of beating, number of observations/total well numbers” value (1 µM, 48h) was 0/5, the “EAD, number of observations/total well numbers” value (1 µM, 48h) was 0/5 and the “FPD (field-potential duration), % change from baseline” value (1 µM, 48h) was -5.8±3 %. For the same compound, the “FPDc … % change from baseline” value (1 µM, 48h) was -2.5±2.1 %, the “Flat T-wave-like, number of observations/total well numbers” value (1 µM, 48h) was 3/5 and the “BR (beating rate), % change” value (1 µM, 72h) was 17±6 %. For the same compound, the “Beating below threshold, number of observations/total well numbers” value (1 µM, 72h) was 0/5, the “Cessation of beating, number of observations/total well numbers” value (1 µM, 72h) was 0/5 and the “EAD, number of observations/total well numbers” value (1 µM, 72h) was 0/5. For the same compound, the “FPD (field-potential duration), % change from baseline” value (1 µM, 72h) was -7.5±0 %, the “FPDc … % change from baseline” value (1 µM, 72h) was -2.3±0% and the “Flat T-wave-like, number of observations/total well numbers” value (1 µM, 72h) was 4/5. For the same compound, the “BR (beating rate), % change” value (1 µM, 96h) was 14±8 %, the “Beating below threshold, number of observations/total well numbers” value (1 µM, 96h) was 0/5 and the “Cessation of beating, number of observations/total well numbers” value (1 µM, 96h) was 0/5. The “EAD, number of observations/total well numbers” value (1 µM, 96h) was 0/5, the “FPD (field-potential duration), % change from baseline” value (1 µM, 96h) was -7.9±0 % and the “FPDc … % change from baseline” value (1 µM, 96h) was -5.5±0 %. The “Flat T-wave-like, number of observations/total well numbers” value (1 µM, 96h) was 4/5, the “BR (beating rate), % change” value (3 µM, 72h) was 12±6 % and the “Beating below threshold, number of observations/total well numbers” value (3 µM, 72h) was 0/5. The “Cessation of beating, number of observations/total well numbers” value (3 µM, 72h) was 0/5, the “EAD, number of observations/total well numbers” value (3 µM, 72h) was 0/5 and the “Flat T-wave-like, number of observations/total well numbers” value (3 µM, 72h) was 5/5. The “BR (beating rate), % change” value (3 µM, 96h) was 20±12 %, the “Beating below threshold, number of observations/total well numbers” value (3 µM, 96h) was 0/5 and the “Cessation of beating, number of observations/total well numbers” value (3 µM, 96h) was 1/5. The “EAD, number of observations/total well numbers” value (3 µM, 96h) was 0/5, the “Flat T-wave-like, number of observations/total well numbers” value (3 µM, 96h) was 4/5 and the “BR (beating rate), % change” value (3 µM, 2h) was 7±1%. The “Beating below threshold, number of observations/total well numbers” value (3 µM, 2h) was 0/5, the “Cessation of beating, number of observations/total well numbers” value (3 µM, 2h) was 0/5 and the “EAD, number of observations/total well numbers” value (3 µM, 2h) was 0/5. For the same compound, the “FPD (field-potential duration), % change from baseline” value (3 µM, 2h) was -3.6±1.9%, the “FPDc … % change from baseline” value (3 µM, 2h) was -1.6±1.8% and the “Flat T-wave-like, number of observations/total well numbers” value (3 µM, 2h) was 0/5. The “BR (beating rate), % change” value (3 µM, 24h) was 20±3 %, the “Beating below threshold, number of observations/total well numbers” value (3 µM, 24h) was 0/5 and the “Cessation of beating, number of observations/total well numbers” value (3 µM, 24h) was 0/5. The “EAD, number of observations/total well numbers” value (3 µM, 24h) was 0/5, the “FPD (field-potential duration), % change from baseline” value (3 µM, 24h) was -17±4.9 % and the “FPDc … % change from baseline” value (3 µM, 24h) was -11.8±5.5 %. For the same compound, the “Flat T-wave-like, number of observations/total well numbers” value (3 µM, 24h) was 0/5, the “BR (beating rate), % change” value (3 µM, 48h) was 13±3% and the “Beating below threshold, number of observations/total well numbers” value (3 µM, 48h) was 0/5. The “Cessation of beating, number of observations/total well numbers” value (3 µM, 48h) was 0/5, the “EAD, number of observations/total well numbers” value (3 µM, 48h) was 0/5 and the “FPD (field-potential duration), % change from baseline” value (3 µM, 48h) was -0.5±0%. For the same compound, the “FPDc … % change from baseline” value (3 µM, 48h) was 2.6±0%, the “Flat T-wave-like, number of observations/total well numbers” value (3 µM, 48h) was 4/5 and the “BR (beating rate), % change” value (10 µM, 2h) was 4±8%. For the same compound, the “Beating below threshold, number of observations/total well numbers” value (10 µM, 2h) was 0/5, the “Cessation of beating, number of observations/total well numbers” value (10 µM, 2h) was 0/5 and the “EAD, number of observations/total well numbers” value (10 µM, 2h) was 0/5. For the same compound, the “FPD (field-potential duration), % change from baseline” value (10 µM, 2h) was -5.7±2.3%, the “FPDc … % change from baseline” value (10 µM, 2h) was -4.4±2.8 % and the “Flat T-wave-like, number of observations/total well numbers” value (10 µM, 2h) was 0/5. For the same compound, the “BR (beating rate), % change” value (10 µM, 24h) was 30±4 %, the “Beating below threshold, number of observations/total well numbers” value (10 µM, 24h) was 0/5 and the “Cessation of beating, number of observations/total well numbers” value (10 µM, 24h) was 0/5. For the same compound, the “EAD, number of observations/total well numbers” value (10 µM, 24h) was 0/5, the “FPD (field-potential duration), % change from baseline” value (10 µM, 24h) was -24.2±3.7 % and the “FPDc … % change from baseline” value (10 µM, 24h) was -17.1±3.6 %. The “Flat T-wave-like, number of observations/total well numbers” value (10 µM, 24h) was 1/5, the “BR (beating rate), % change” value (10 µM, 48h) was 24±6 % and the “Beating below threshold, number of observations/total well numbers” value (10 µM, 48h) was 0/5. The “Cessation of beating, number of observations/total well numbers” value (10 µM, 48h) was 0/5, the “EAD, number of observations/total well numbers” value (10 µM, 48h) was 0/5 and the “FPD (field-potential duration), % change from baseline” value (10 µM, 48h) was -10.6±0 %. For the same compound, the “FPDc … % change from baseline” value (10 µM, 48h) was -2.4±0 %, the “Flat T-wave-like, number of observations/total well numbers” value (10 µM, 48h) was 4/5 and the “BR (beating rate), % change” value (10 µM, 72h) was 32±14 %. The “Beating below threshold, number of observations/total well numbers” value (10 µM, 72h) was 0/5, the “Cessation of beating, number of observations/total well numbers” value (10 µM, 72h) was 0/5 and the “EAD, number of observations/total well numbers” value (10 µM, 72h) was 0/5. The “Flat T-wave-like, number of observations/total well numbers” value (10 µM, 72h) was 5/5, the “BR (beating rate), % change” value (10 µM, 96h) was 29±0 % and the “Beating below threshold, number of observations/total well numbers” value (10 µM, 96h) was 1/5. For the same compound, the “Cessation of beating, number of observations/total well numbers” value (10 µM, 96h) was 3/5, the “EAD, number of observations/total well numbers” value (10 µM, 96h) was 0/5 and the “Flat T-wave-like, number of observations/total well numbers” value (10 µM, 96h) was 1/5. The T-wave morphology (72 h and 96 h, two highest concentrations (10 and 1 µM)) was “flattening of the T-wave”.
